From PMC3733247 (Journal of medicinal chemistry, 2013) come the findings set out here.

The experiment concerns the target HIV-1 RT (Human immunodeficiency virus type 1 group M subtype B, UniProt P03366). As to the kind of experiment: Steady-state competition assay, IC50 determination. In kind it is biochemical. As to conditions: dTTP incorporation, ratio of IC50 values.

Consider `Cc1cc(C#CCOCCOCCOCCOCCOCC#Cc2cn([C@H]3C=C[C@@H](COP(=O)(O)OP(=O)(O)OP(=O)(O)O)O3)c(=O)[nH]c2=O)cc(C)c1Oc1ccnc(Nc2ccc(C#N)cc2)n1` [d4TTP-4PEG-TMC, d4U-Propynyl-4-PEG-propynyl-TMC-triphosphate], for which the “fold improvement of polymerization inhibition over propargyl-4PEG-TMC” value was found to be 40 fold and the “fold improvement of polymerization inhibition relative to the TMC-derivative” value was “approximately 4.3 fold”. Besides, for the setting “listed as triphosphate of d4T-4PEG-TMC”, the “fold improvement of polymerization inhibition relative to the TMC-derivative” value turned out to be 4.3 fold.
Take `C#CCOCCOCCOCCOCCOCC#Cc1cc(C)c(Oc2ccnc(Nc3ccc(C#N)cc3)n2)c(C)c1` [propargyl-4PEG-TMC, 4-[4-(4-{3-[2-(2-{2-[2-(Prop-2-ynyloxy)ethoxy]ethoxy}ethoxy)-ethoxy]prop-1-ynyl}-2,6-dimethylphenoxy)pyrimidin-2-ylamino]-benzonitrile]: the “fold decrease in potency relative to the TMC-derivative” value was 10 fold.
